Experimental data published in publication PMC6009935 (Journal of Enzyme Inhibition and Medicinal Chemistry, 2017).
Read-outs that look alike come from different tables or passages of the source.

Tested on: G-protein
Test: Functional [35S]GTPγS binding assay on rat brain membrane homogenates
Assay type: biochemical
Procedure: The experiments were performed by [35S]GTPγS binding assays to control the GDP to GTP exchange of the α-subunit of Gi-protein. […] We examined the opioid receptor binding affinity of 5 in competition binding experiments, using opioid receptor selective radioligands. […]
Functional [35S]GTPγS binding experiments
The functional [35S]GTPγS binding experiments were performed as previously described,5,6 with modifications. Briefly the rat brain membrane homogenates containing ~10 µg/mL protein were incubated at 30 °C for 60 min in Tris-EGTA buffer (pH 7.4) composed of 50 mM Tris-HCl, 1 mM EGTA, 3 mM MgCl2, 100 mM NaCl, containing 20 MBq/0.05 cm3 [35S]GTPγS (0.05 nM) and […]
compound 9 together with excess GDP (30 µM) in a final volume of 1 mL. Total binding was measured in the absence of test compounds, non-specific binding was determined in the presence of 10 µM unlabelled GTPγS. The bound and unbound [35S]GTPγS was separated as described in the […]
competition binding assays section through Whatmann GF/B glass fibers. The radioactivity of the filters was also detected as described above. [35S]GTPγS binding experiments were performed in triplicates and repeated at least three times.
The specific binding of all radiolabeled compounds was calculated by the subtraction of non-specific binding from total binding and was given in percentage. The data was normalized to total specific binding, which was settled 100%, which in case of [35S]GTPγS also represents the basal activity of the G-protein. Experimental data were presented as means ± S.E.M in the function of the applied ligand concentration range in logarithm form. Points were fitted with the professional curve fitting program, GraphPad Prism 5.0 (GraphPad Prism Software Inc., San Diego, CA), using non-linear regression. In the radioligand competition binding assays the ‘One-site competition’, while in [35S]GTPγS binding assays the ‘Sigmoid dose-response’ equation was applied to determine IC50 (unlabeled ligand affinity) and the maximum G-protein efficacy (Emax) and ligand potency (EC50), respectively. For IC50 and EC50 values standard error is only given in their logarithm form by the curve fitting program due to the data representation. In competition binding experiments the Ki value was calculated according to Cheng-Prusoff equation.7 […]
binding assays. In figure B, 5 is indicated again for better comparison. Figures represents the specific binding of [35S]GTPγS in percentage in the presence of increasing concentrations (10-10-10-5 M) of the indicated ligands in rat brain membrane homogenates. “Basal” on the x-axis indicates the basal activity of the monitored G-protein, which is measured in the absence of the compounds and also represents the total specific binding of [35S]GTPγS. The level of basal activity was defined as 100% and is presented with a dotted line. Points represent means ± S.E.M. for at least three experiments performed in triplicate.

[1] = rat brain membrane homogenates, basal activity = 100%
[2] = rat brain membrane homogenates, logarithm of EC50, negative sign printed

| SMILES | Emax ± S.E.M. (maximal G-protein efficacy) [1] [%] | LogEC50 ± S.E.M. (ligand potency) [2] | agonist, antagonist or inverse agonist nature | EC50 (rat brain membrane homogenates) [nM] | EC50 [nM] | Emax ± S.E.M. (maximal G-protein efficacy) [%] | LogEC50 ± S.E.M. (ligand potency) | maximum efficacy (Emax) above basal activity [%] |
| --- | --- | --- | --- | --- | --- | --- | --- | --- |
| Cc1c(C(=O)NC2CCNCC2)nn(-c2ccc(Cl)cc2Cl)c1-n1cccc1 [Compound 5] | 99.2 ± 46.1 | ambiguous ^* |  |  |  |  |  |  |
| Cc1c(C(=O)NC2CCN(C(=O)[C@H](Cc3ccccc3)NC(=O)CNC(=O)[C@@H](C)NC(=O)[C@@H](N)Cc3ccc(O)cc3)CC2)nn(-c2ccc(Cl)cc2Cl)c1-n1cccc1 [Compound 9] | 36.62 ± 10.35 | −5.44 ± 0.21 | inverse agonist | 3600 |  |  |  |  |
| C[C@@H](NC(=O)[C@@H](N)Cc1ccc(O)cc1)C(=O)NCC(=O)N[C@@H](Cc1ccccc1)C(N)=O [Compound 10, Tyr-D-Ala-Gly-Phe-NH2, reference compound] |  |  | agonist |  | 81.3 | 161.5 ± 4.08 | −7.09 ± 0.22 (81.3 nM) | ~70 |
